Active and inactive are the calls of the source.
Legend:
Assay type in all cases: functional, organism-based
[1] = system: Mycobacterium leprae; assay: Antimycobacterial activity against Mycobacterium leprae infected in CBA/J mouse assessed as microbial growth inhibition at 6 mg/kg, po administered 5 times weekly during logarithmic multiplication from day 60 to day 150 post infection measured on day 228 post infection; set-up: dose 6 mg/kg
[2] = system: Mycobacterium leprae; assay: Antimycobacterial activity against Mycobacterium leprae infected in CBA/J mouse assessed as microbial growth inhibition at 30 mg/kg, po administered once weekly during logarithmic multiplication from day 60 to day 150 post infection measured on day 228 post infection; set-up: dose 30 mg/kg
[3] = system: Mycobacterium leprae; assay: Antimycobacterial activity against Mycobacterium leprae infected in CBA/J mouse assessed as microbial growth inhibition at 50 mg/kg, po administered once monthly during logarithmic multiplication from day 60 to day 150 post infection measured on day 152 post infection; set-up: dose 50 mg/kg
[4] = system: Mycobacterium leprae; assay: Antimycobacterial activity against Mycobacterium leprae infected in CBA/J mouse assessed as microbial growth inhibition at 50 mg/kg, po administered once weekly during logarithmic multiplication from day 60 to day 150 post infection measured on day 152 post infection; set-up: dose 50 mg/kg
[5] = system: Mycobacterium leprae; assay: Antimycobacterial activity against Mycobacterium leprae infected in CBA/J mouse assessed as microbial growth inhibition at 25 mg/kg, po administered 5 times weekly during logarithmic multiplication from day 60 to day 150 post infection measured on day 228 post infection; set-up: dose 25 mg/kg
[6] = system: Mycobacterium leprae; assay: Antimycobacterial activity against Mycobacterium leprae infected in CBA/J mouse assessed as microbial growth inhibition at 12.5 mg/kg, po administered 5 times weekly during logarithmic multiplication from day 60 to day 150 post infection measured on day 228 post infection; set-up: dose 12.5 mg/kg
[7] = system: Mycobacterium leprae; assay: Antimycobacterial activity against Mycobacterium leprae infected in CBA/J mouse assessed as microbial growth inhibition at 50 mg/kg, po administered once monthly during logarithmic multiplication from day 60 to day 150 post infection measured on day 228 post infection; set-up: dose 50 mg/kg
[8] = system: Mycobacterium leprae; assay: Antimycobacterial activity against Mycobacterium leprae infected in CBA/J mouse assessed as microbial growth inhibition at 50 mg/kg, po administered once weekly during logarithmic multiplication from day 60 to day 150 post infection measured on day 302 to 365 post infection; set-up: dose 50 mg/kg
[9] = system: Mycobacterium leprae; assay: Antimycobacterial activity against Mycobacterium leprae infected in CBA/J mouse assessed as microbial growth inhibition at 100 mg/kg, po administered once weekly during logarithmic multiplication from day 60 to day 150 post infection measured on day 228 post infection; set-up: dose 100 mg/kg
[10] = system: Mycobacterium leprae; assay: Antimycobacterial activity against Mycobacterium leprae infected in CBA/J mouse assessed as microbial growth inhibition at 25 mg/kg, po administered 5 times weekly during logarithmic multiplication from day 60 to day 150 post infection measured on day 152 post infection; set-up: dose 25 mg/kg
[11] = system: Mycobacterium leprae; assay: Antimycobacterial activity against Mycobacterium leprae infected in CBA/J mouse assessed as microbial growth inhibition at 30 mg/kg, po administered once weekly during logarithmic multiplication from day 60 to day 150 post infection measured on day 302 to 365 post infection; set-up: dose 30 mg/kg
[12] = system: Mycobacterium leprae; assay: Antimycobacterial activity against Mycobacterium leprae infected in CBA/J mouse assessed as microbial growth inhibition at 120 mg/kg, po administered once monthly during logarithmic multiplication from day 60 to day 150 post infection measured on day 152 post infection; set-up: dose 120 mg/kg
[13] = system: Mycobacterium leprae; assay: Antimycobacterial activity against Mycobacterium leprae infected in CBA/J mouse assessed as microbial growth inhibition at 25 mg/kg, po administered once monthly during logarithmic multiplication from day 60 to day 150 post infection measured on day 152 post infection; set-up: dose 25 mg/kg
[14] = system: Mycobacterium leprae; assay: Antimycobacterial activity against Mycobacterium leprae infected in CBA/J mouse assessed as microbial growth inhibition at 25 mg/kg, po administered once weekly during logarithmic multiplication from day 60 to day 150 post infection measured on day 228 post infection; set-up: dose 25 mg/kg
[15] = system: Mycobacterium leprae; assay: Antimycobacterial activity against Mycobacterium leprae infected in CBA/J mouse assessed as microbial growth inhibition at 100 mg/kg, po administered once monthly during logarithmic multiplication from day 60 to day 150 post infection measured on day 152 post infection; set-up: dose 100 mg/kg
[16] = system: Mycobacterium leprae; assay: Antimycobacterial activity against Mycobacterium leprae infected in CBA/J mouse assessed as microbial growth inhibition at 50 mg/kg, po administered once monthly during logarithmic multiplication from day 60 to day 150 post infection measured on day 302 to 365 post infection; set-up: dose 50 mg/kg
[17] = system: Mycobacterium leprae; assay: Antimycobacterial activity against Mycobacterium leprae infected in CBA/J mouse assessed as microbial growth inhibition at 50 mg/kg, po administered once weekly during logarithmic multiplication from day 60 to day 150 post infection measured on day 228 post infection; set-up: dose 50 mg/kg
[18] = system: Mycobacterium leprae; assay: Antimycobacterial activity against Mycobacterium leprae infected in CBA/J mouse assessed as microbial growth inhibition at 100 mg/kg, po administered once weekly during logarithmic multiplication from day 60 to day 150 post infection measured on day 302 to 365 post infection; set-up: dose 100 mg/kg
[19] = system: Mycobacterium leprae; assay: Antimycobacterial activity against Mycobacterium leprae infected in CBA/J mouse assessed as microbial growth inhibition at 3 mg/kg, po administered 5 times weekly during logarithmic multiplication from day 60 to day 150 post infection measured on day 152 post infection; set-up: dose 3 mg/kg
[20] = system: Mycobacterium leprae; assay: Antimycobacterial activity against Mycobacterium leprae infected in CBA/J mouse assessed as microbial growth inhibition at 100 mg/kg, po administered once weekly during logarithmic multiplication from day 60 to day 150 post infection measured on day 152 post infection; set-up: dose 100 mg/kg
[21] = system: Mycobacterium leprae; assay: Antimycobacterial activity against Mycobacterium leprae infected in CBA/J mouse assessed as microbial growth inhibition at 120 mg/kg, po administered once monthly during logarithmic multiplication from day 60 to day 150 post infection measured on day 302 to 365 post infection; set-up: dose 120 mg/kg
[22] = system: Mycobacterium leprae; assay: Antimycobacterial activity against Mycobacterium leprae infected in CBA/J mouse assessed as microbial growth inhibition at 100 mg/kg, po administered once monthly during logarithmic multiplication from day 60 to day 150 post infection measured on day 228 post infection; set-up: dose 100 mg/kg
[23] = system: Mycobacterium leprae; assay: Antimycobacterial activity against Mycobacterium leprae infected in CBA/J mouse assessed as microbial growth inhibition at 12.5 mg/kg, po administered 5 times weekly during logarithmic multiplication from day 60 to day 150 post infection measured on day 152 post infection; set-up: dose 12.5 mg/kg
[24] = system: Mycobacterium leprae; assay: Antimycobacterial activity against Mycobacterium leprae infected in CBA/J mouse assessed as microbial growth inhibition at 120 mg/kg, po administered once monthly during logarithmic multiplication from day 60 to day 150 post infection measured on day 228 post infection; set-up: dose 120 mg/kg
[25] = system: Mycobacterium leprae; assay: Antimycobacterial activity against Mycobacterium leprae infected in CBA/J mouse assessed as microbial growth inhibition at 6 mg/kg, po administered 5 times weekly during logarithmic multiplication from day 60 to day 150 post infection measured on day 152 post infection; set-up: dose 6 mg/kg
[26] = system: Mycobacterium leprae; assay: Antimycobacterial activity against Mycobacterium leprae infected in CBA/J mouse assessed as microbial growth inhibition at 1 mg/kg, po administered 5 times weekly during logarithmic multiplication from day 60 to day 150 post infection measured on day 228 post infection; set-up: dose 1 mg/kg
[27] = system: Mycobacterium leprae; assay: Antimycobacterial activity against Mycobacterium leprae infected in CBA/J mouse assessed as microbial growth inhibition at 3 mg/kg, po administered 5 times weekly during logarithmic multiplication from day 60 to day 150 post infection measured on day 228 post infection; set-up: dose 3 mg/kg
[28] = system: Mycobacterium leprae; assay: Antimycobacterial activity against Mycobacterium leprae infected in CBA/J mouse assessed as microbial growth inhibition at 30 mg/kg, po administered once weekly during logarithmic multiplication from day 60 to day 150 post infection measured on day 152 post infection; set-up: dose 30 mg/kg
[29] = system: Mycobacterium leprae; assay: Antimycobacterial activity against Mycobacterium leprae infected in CBA/J mouse assessed as microbial growth inhibition at 25 mg/kg, po administered once weekly during logarithmic multiplication from day 60 to day 150 post infection measured on day 152 post infection; set-up: dose 25 mg/kg
[30] = system: Mycobacterium leprae; assay: Antimycobacterial activity against Mycobacterium leprae infected in CBA/J mouse assessed as microbial growth inhibition at 25 mg/kg, po administered once monthly during logarithmic multiplication from day 60 to day 150 post infection measured on day 228 post infection; set-up: dose 25 mg/kg
[31] = system: Mycobacterium leprae; assay: Antimycobacterial activity against Mycobacterium leprae infected in CBA/J mouse assessed as microbial growth inhibition at 1 mg/kg, po administered 5 times weekly during logarithmic multiplication from day 60 to day 150 post infection measured on day 152 post infection; set-up: dose 1 mg/kg

Measured: growth inhibition (GI)

COc1nc2ccc(Br)cc2cc1[C@@H](c1ccccc1)[C@@](O)(CCN(C)C)c1cccc2ccccc12
active: all assays above
